# In article PMC6598759, “In vitro genotoxicity of nitroimidazoles as a tool in the search of new trypanocidal agents” (Memórias do Instituto Oswaldo Cruz, 2019):
# Where two headings read alike, the source gives them in different places.
# Experiments:
# [1] = test system: whole human blood cells (WHBC); assay: In vitro cytokinesis-block micronucleus assay (CBMN) with whole human blood cells
# Experimental: In vitro cytokinesis-block micronucleus assay (CBMN) with whole human blood cells (WHBC) - Heparinised WHBC samples were obtained by venipuncture from volunteers as described above. […] WHBC cultures exposed to mitomycin C (MMC) (1.0 µg/mL in water) (Bristol, USA) for 2 h or to N-deacetyl-N-methylcolchicine in water (Demecolcine: Sigma-Aldrich) 0.02 µg/mL for 28 h were used as positive control cultures. After the treatment, the WHBC cultures were centrifuged (900 rpm, 10 min) and washed with 5 mL PBS. […] CytB has cytokinesis-block activity leading to the formation of binucleate cells. […] The fixed cell suspension was dropped on a clean glass slide and the slide was air-dried on a heating plate (60 °C). Air-dried slides were stained with 60 µg/mL acridine orange in Sörensen buffer (0.03 M KH2PO4, 0.03 M Na2HPO4) for 3s, then they were embedded in distilled water and covered with a coverslip. MN showing bright green fluorescence were analysed using a fluorescence microscope at 400 X magnification. MN were scored in 2,000 binucleated cells (BNC) for culture and the number of the micronucleate cells (MNC) in 2,000 BNC was determined. Cytotoxicity was measured using the cytokinesis-block proliferation index (CBPI) and the replication index (RI) which were calculated from 500 cells. The CBPI indicates the average number of nuclei per cell, and may be used to calculate cell proliferation. The RI indicates the relative number of cell cycles per cell during the period of exposure to cytoB in treated cultures compared to control cultures and can be used to calculate the % cytostasis. CBPI was calculated according to the formula: CBPI = [(No. mononucleate cells) + (2 x No. binucleate cells) + (3 x No. multinucleate cells)] / N, where N indicates the total number of cells scored. RI (%) was calculated according to the formula:
# RI %=((No. binucleate cells) + (2 x No. multinucleate cells)) ÷ (Total number of cells)T/((No. binucleate cells) + (2 x No. multinucleate cells)) ÷ (Total number of cells)C x 100
# where T indicates treated cultures and C control cultures
# Cytotoxicity was evidenced in the occurrence of reduction in CBPI or RI of cultures treated by test substances when compared to control cultures. The measurement of cytotoxicity was used to select the concentrations of the test substance to be analysed for the presence of MN. […] However, it was adopted in this work as the maximum concentration in CBMN one that induced a proliferation inhibition not exceeding about 50% established by ICH S2 (R1) for lymphocyte cultures.
# The chi-square test for trend was performed to analyse if the increase of MNC was concentration-related.[30]
# [2] = test system: bloodstream trypomastigotes form Y strain of T. cruzi; conditions: read-out: IC50/24 h (concentration that produces 50% lysis of the parasites), trypomastigote forms; cited from earlier work
# [3] = test system: whole human blood cells (WHBC); conditions: cited from earlier work; for percentage decrease in cell viability: 2 h
# [4] = test system: whole human blood cells (WHBC); conditions: 149-6,400 µM, 2 h, p > 0.1; cited from earlier work
smiles,measurement,setting,value
Cn1c([N+](=O)[O-])cnc1-c1nnc(N)[nH]1 [Compound 4],CBPI,"[1]; 150 µM, 4 h",1.220
same,NMNC/2000 binucleated cells,"[1]; 150 µM, 4 h",28
same,RI (%),"[1]; 150 µM, 4 h",106%
same,CBPI,"[1]; 640 µM, 4 h",1.230
same,NMNC/2000 binucleated cells,"[1]; 640 µM, 4 h",36
same,RI (%),"[1]; 640 µM, 4 h",107%
same,CBPI,"[1]; 1,600 µM, 4 h",1.218
same,NMNC/2000 binucleated cells,"[1]; 1,600 µM, 4 h",44
same,RI (%),"[1]; 1,600 µM, 4 h",76%
same,CBPI,"[1]; 4,000 µM, 4 h",1.054
same,RI (%),"[1]; 4,000 µM, 4 h",22%
same,CBPI,"[1]; 10,000 µM, 4 h",1.052
same,RI (%),"[1]; 10,000 µM, 4 h",23%
same,maximum concentration used in MN analysis (inducing in the maximum 50% reduction of CBPI or RI),"[1]; 4 h, relative to solvent-control","1,600 μM"
same,concentrations with significant mutagenic effect (increase of MNC),"[1]; 4 h, p < 0.01 for 3, p < 0.05 for 4 and 7","1,600 μM"
same,result in the CBMN,[1]; overall call,clastogenic and/or aneugenic
same,IC50,[2],257 ± 53 µM
same,percentage decrease in cell viability,[3]; 149 µM,1.0%
same,percentage decrease in cell viability,[3]; 238 µM,1.0%
same,percentage decrease in cell viability,[3]; 382 µM,1.0%
same,percentage decrease in cell viability,[3]; 610 µM,0%
same,percentage decrease in cell viability,"[3]; 1,562 µM",1.0%
same,percentage decrease in cell viability,"[3]; 2,500 µM",1.0%
same,percentage decrease in cell viability,"[3]; 4,000 µM",0%
same,percentage decrease in cell viability,"[3]; 6,400 µM",0%
same,lethality variation range,"[3]; 149-6,400 µM, 2 h at 37 °C, compared to solvent-control",1-4%
same,DNA strand breaks compared to solvent-control,[4],did not cause DNA strand breaks
